Experimental data taken from patent US20260297042A1, “BIARYLAMIDE DERIVATIVES AND THEIR USE AS PKMYT1 INHIBITORS” (CANCER RESEARCH TECHNOLOGY LIMITED, priority 2023, published 2026).

Experiments:
OVCAR 3 cells = assay: Cancer cell line proliferation assay, ATP-based cell viability (Cell Titre Glow), OVCAR 3 (CCNE1-amplified); conditions: KYSE30 (normal CCNE1) GI50 vs. OVCAR 3 (CCNE1-amplified) GI50
How it was run: (§1)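 CellTiter-Glo luminescence endpoint; PKMYT1 inhibitor exposure; GI50 = conc. for 50% growth inhibition, curve-fitted.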

[1] = molecular target: T1, Cellular PKMYT1 Biomarker CDK1 pT14 (Homo sapiens, UniProt Q99640); assay: Inhibition of cellular PKMYT1 biomarker CDK1 pT14 in OVCAR 3 cells (immunoblot); format: cell-based; conditions: 20 hours incubation
T1 construct: read-out CDK1 phospho-T14 immunoblot
T1 sequence (Q99640 1-499): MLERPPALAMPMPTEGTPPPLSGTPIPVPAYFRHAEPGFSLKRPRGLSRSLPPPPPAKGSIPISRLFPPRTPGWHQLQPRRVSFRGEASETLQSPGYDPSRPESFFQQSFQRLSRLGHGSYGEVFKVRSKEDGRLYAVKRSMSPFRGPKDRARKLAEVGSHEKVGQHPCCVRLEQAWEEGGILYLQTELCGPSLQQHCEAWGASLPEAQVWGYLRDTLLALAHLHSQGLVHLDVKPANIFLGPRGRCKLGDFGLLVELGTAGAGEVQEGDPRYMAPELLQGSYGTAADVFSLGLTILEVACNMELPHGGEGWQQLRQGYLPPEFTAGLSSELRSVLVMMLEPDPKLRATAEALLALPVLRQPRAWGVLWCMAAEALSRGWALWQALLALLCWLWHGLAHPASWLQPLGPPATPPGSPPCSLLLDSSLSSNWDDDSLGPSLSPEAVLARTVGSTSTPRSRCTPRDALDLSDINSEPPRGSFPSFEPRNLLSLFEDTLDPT
How it was run: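 Confluent OVCAR 3 cells treated with a compound concentration range for 20 h at 37 °C. Lysates analysed by automated capillary immunoblot for CDK1 phospho-T14, with vinculin, fluorescence detection; IC50 by regression.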

Human PKMYT1 = molecular target: T2, Human PKMYT1 (Homo sapiens, UniProt Q99640); assay: PKMYT1 biochemical ADP-Glo enzymatic assay; conditions: ADP-Glo; 15 nM PKMYT1 kinase domain, 500 µM ATP, 60 minutes at 26° C.; banded
T2 construct: Human PKMYT1 75-362 was cloned as a TEV cleavable 6xHis fusion; 6xHis (TEV cleavable) (cleaved yes); made in house; host or cells: bacterial cells
T2 sequence (Q99640 75-362): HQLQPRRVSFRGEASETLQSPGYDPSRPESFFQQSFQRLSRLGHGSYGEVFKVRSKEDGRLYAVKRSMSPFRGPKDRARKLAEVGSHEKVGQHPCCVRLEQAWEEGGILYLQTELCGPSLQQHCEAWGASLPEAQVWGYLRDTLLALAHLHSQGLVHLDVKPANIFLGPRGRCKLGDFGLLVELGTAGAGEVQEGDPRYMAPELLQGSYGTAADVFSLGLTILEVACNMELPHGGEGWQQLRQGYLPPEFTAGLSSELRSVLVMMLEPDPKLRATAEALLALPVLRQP
How it was run: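 IC50 values come from 10-point 3-fold series, with replicates required within 3-fold and r2 >0.9. ADP formed by PKMYT1 intrinsic ATPase (500 uM ATP, 60 min, 26° C.) was quantified by ADP-Glo luminescence. The enzyme was the TEV-cleaved kinase domain 75-362 at 15 nM, in HEPES pH 7.5 buffer.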

KYSE-30 cells = assay: Cancer cell line proliferation assay, ATP-based cell viability (Cell Titre Glow), KYSE-30 (normal CCNE1); conditions: Homo sapiens, KYSE-30 cells (normal CCNE1), concentration that achieves 50% cell growth proliferation inhibition, read-out: KYSE30 Gl50
How it was run: as §1

WEE1 = molecular target: T3, WEE1 (Homo sapiens, UniProt P30291); assay: Selectivity versus WEE1 assay (ADP-Glo enzymatic assay); format: biochemical; conditions: banded; for IC50: ADP-Glo, 15 nM WEE1, 60 minutes at 26° C.; for PKMYT1 vs. WEE1 selectivity: fold difference in selectivity for PKMYT1 over WEE1, ">N" = at least in this band but could be higher
T3 construct: purchased Thermo Fisher PR7373A
T3 sequence (P30291 whole entry): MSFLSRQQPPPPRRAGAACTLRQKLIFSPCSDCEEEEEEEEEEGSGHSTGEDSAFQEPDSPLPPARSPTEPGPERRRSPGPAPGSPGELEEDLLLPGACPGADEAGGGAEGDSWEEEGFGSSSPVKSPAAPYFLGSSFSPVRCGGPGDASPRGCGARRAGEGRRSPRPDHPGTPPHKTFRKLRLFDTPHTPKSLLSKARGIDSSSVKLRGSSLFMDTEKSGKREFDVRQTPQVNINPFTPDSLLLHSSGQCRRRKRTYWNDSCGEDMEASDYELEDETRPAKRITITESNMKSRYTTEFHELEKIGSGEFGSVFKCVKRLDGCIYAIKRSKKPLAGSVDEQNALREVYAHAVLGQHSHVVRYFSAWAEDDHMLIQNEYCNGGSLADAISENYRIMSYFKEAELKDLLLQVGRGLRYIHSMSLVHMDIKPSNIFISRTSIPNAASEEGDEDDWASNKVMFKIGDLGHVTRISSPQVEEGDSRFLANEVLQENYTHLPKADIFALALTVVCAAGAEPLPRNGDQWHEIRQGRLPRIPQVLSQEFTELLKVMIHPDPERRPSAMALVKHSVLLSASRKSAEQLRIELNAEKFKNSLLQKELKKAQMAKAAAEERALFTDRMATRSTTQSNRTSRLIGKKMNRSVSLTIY
How it was run: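 ADP-Glo luminescent read-out after a 60-min, 26 °C kinase reaction of 15 nM WEE1 with 30 µM ATP, in HEPES pH 7.5 buffer containing MgCl2, EGTA, Brij-35 and 1% DMSO. IC50 accepted only when replicate values agree within 3-fold and curve fit r2 exceeds 0.9.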

Row | SMILES | IC50 [1] [nM] | IC50 (Human PKMYT1) [nM] | IC50 (WEE1) [nM] | PKMYT1 vs. WEE1 selectivity (WEE1) | Selectivity ratio KYSE30 Gl50 vs. OVCAR3 Gl50 (OVCAR 3 cells) | GI50 (KYSE-30 cells) [nM]
1 | Cc1ccc(NC(=O)c2ccc(C(F)(F)F)cc2)nc1Nc1ncc(C(=O)Nc2c(C)ccc(O)c2C)s1 [BAA-328, N-(3-Hydroxy-2,6-dimethylphenyl)-2-((3-methyl-6-(4-(trifluoromethyl)benzamido)pyridin-2-yl)amino)thiazole-5-carboxamide] | < 100 | 50 to 1000 | > 11000 | X (100-<1000 fold) | Y (>20 fold) | > 5000
2 | Cc1ccc(NC(=O)C2CCOCC2)nc1Nc1ncc(C(=O)Nc2c(C)ccc(O)c2C)s1.Cl [BAA-331, N-(3-hydroxy-2,6-dimethylphenyl)-2-((3-methyl-6-(tetrahydro-2H-pyran-4-carboxamido)pyridin-2-yl)amino)thiazole-5-carboxamide hydrochloride] | < 100 | < 50 | > 11000 | Y (1000-5000 fold) | Y (>20 fold) | 500 to 5000
3 | Cc1ccc(NC(=O)C(C)C)nc1Nc1ncc(C(=O)Nc2c(C)ccc(O)c2C)s1.Cl [BAA-332, N-(3-hydroxy-2,6-dimethylphenyl)-2-((6-isobutyramido-3-methylpyridin-2-yl)amino)thiazole-5-carboxamide hydrochloride] | < 100 | < 50 | > 11000 | X (100-<1000 fold) | Y (>20 fold) | 500 to 5000
4 | Cc1ccc(O)c(C)c1NC(=O)c1cnc(Nc2nc(NC(=O)C(C)(C)C)ccc2Cl)s1.Cl [BAA-333, 2-((3-chloro-6-pivalamidopyridin-2-yl)amino)-N-(3-hydroxy-2,6-dimethylphenyl)thiazole-5-carboxamide hydrochloride] | < 100 | 50 to 1000 | > 11000 | Y (1000-5000 fold) | Y (>20 fold) | > 5000
5 | Cc1ccc(O)c(C)c1NC(=O)c1cnc(Nc2cc(Cl)cc(NC(=O)C(C)(C)C)n2)s1.Cl [BAA-334, 2-((4-chloro-6-pivalamidopyridin-2-yl)amino)-N-(3-hydroxy-2,6-dimethylphenyl)thiazole-5-carboxamide hydrochloride] | < 100 | 50 to 1000 | > 11000 | X (100-<1000 fold) | Y (>20 fold) | 500 to 5000
6 | Cc1cc(Nc2ncc(C(=O)Nc3c(C)ccc(O)c3C)s2)nc(NCCC(C)(C)C)n1 [BAA-338, 2-((2-((3,3-Dimethylbutyl)amino)-6-methylpyrimidin-4-yl)amino)-N-(3-hydroxy-2,6-dimethylphenyl)thiazole-5-carboxamide] | < 100 | < 50 | 1000 to 11000 | X (100-<1000 fold) | Y (>20 fold) | < 500
7 | Cc1ccc(N[S+]([O-])C(C)(C)C)nc1Nc1ncc(C(=O)Nc2c(C)ccc(O)c2C)s1 (stereo not drawn) [BAA-340, 2-((6-((tert-Butylsulfinyl)amino)-3-methylpyridin-2-yl)amino)-N-(3-hydroxy-2,6-dimethylphenyl)thiazole-5-carboxamide] | 100 to 1000 | < 50 | 50 to 1000 | V (3-<10 fold) | Y (>20 fold) | 500 to 5000
8 | Cc1ccc(NC(=O)C(C)(C)O)nc1Nc1ncc(C(=O)Nc2c(C)ccc(O)c2C)s1.Cl [BAA-342, N-(3-Hydroxy-2,6-dimethylphenyl)-2-((6-(2-hydroxy-2-methylpropanamido)-3-methylpyridin-2-yl)amino)thiazole-5-carboxamide hydrochloride] | < 100 | < 50 | > 11000 | X (100-<1000 fold) | Y (>20 fold) | > 5000
9 | Cc1cn(S(=O)(=O)c2ccccc2)nc1Nc1ncc(C(=O)Nc2c(C)ccc(O)c2C)s1 [BAA-379, N-(3-Hydroxy-2,6-dimethylphenyl)-2-((4-methyl-1-(phenylsulfonyl)-1H-pyrazol-3-yl)amino)thiazole-5-carboxamide] | < 100 | < 50 | > 11000 | X (100-<1000 fold) | X (3-20 fold) | > 5000

Second part, led by results:

Row | IC50 [1] [nM] | IC50 (Human PKMYT1) [nM] | IC50 (WEE1) [nM] | PKMYT1 vs. WEE1 selectivity (WEE1) | SMILES | Selectivity ratio KYSE30 Gl50 vs. OVCAR3 Gl50 (OVCAR 3 cells) | GI50 (KYSE-30 cells) [nM]
10 | < 100 | < 50 | 1000 to 11000 | X (100-<1000 fold) | Cc1ccc(N)nc1Nc1ncc(C(=O)Nc2c(C)ccc(O)c2C)s1 [BAA-337, 2-((6-amino-3-methylpyridin-2-yl)amino)-N-(3-hydroxy-2,6-dimethylphenyl)thiazole-5-carboxamide] | Y (>20 fold) | 500 to 5000
11 | < 100 | < 50 | > 11000 | X (100-<1000 fold) | Cc1cn(-c2ccccc2)nc1Nc1ncc(C(=O)Nc2c(C)ccc(O)c2C)s1 [BAA-361, N-(3-hydroxy-2,6-dimethylphenyl)-2-((4-methyl-1-phenyl-1H-pyrazol-3-yl)amino)thiazole-5-carboxamide] | Y (>20 fold) | 500 to 5000
12 | < 100 | < 50 | > 11000 | X (100-<1000 fold) | Cc1cn(-c2ccccn2)nc1Nc1ncc(C(=O)Nc2c(C)ccc(O)c2C)s1 [BAA-365, N-(3-hydroxy-2,6-dimethylphenyl)-2-((4-methyl-1-(pyridin-2-yl)-1H-pyrazol-3-yl)amino)thiazole-5-carboxamide] | Y (>20 fold) | 500 to 5000
13 | < 100 | < 50 | 1000 to 11000 | X (100-<1000 fold) | Cc1cn(CC(=O)N2CC3(CCC3)C2)nc1Nc1ncc(C(=O)Nc2c(C)ccc(O)c2C)s1 [BAA-381, N-(3-hydroxy-2,6-dimethylphenyl)-2-((4-methyl-1-(2-oxo-2-(2-azaspiro[3.3]heptan-2-yl)ethyl)-1H-pyrazol-3-yl)amino)thiazole-5-carboxamide] | Y (>20 fold) | > 5000
14 | < 100 | < 50 | 1000 to 11000 | X (100-<1000 fold) | Cc1cnccc1-n1cc(C)c(Nc2ncc(C(=O)Nc3c(C)ccc(O)c3C)s2)n1 [BAA-384, N-(3-hydroxy-2,6-dimethylphenyl)-2-((4-methyl-1-(3-methylpyridin-4-yl)-1H-pyrazol-3-yl)amino)thiazole-5-carboxamide] | Y (>20 fold) | 500 to 5000
15 | < 100 | < 50 | 1000 to 11000 | X (100-<1000 fold) | Cc1cn(-c2cnn(C)c2)nc1Nc1ncc(C(=O)Nc2c(C)ccc(O)c2C)s1 [BAA-385, 2-((1′′,4-dimethyl-1′H-[1,4′-bipyrazol]-3-yl)amino)-N-(3-hydroxy-2,6-dimethylphenyl)thiazole-5-carboxamide] | Y (>20 fold) | 500 to 5000
